Assays:
[1] = test system: PM10D-induced airway inflammation model; assay: FACS analysis of immune cells in bronchoalveolar lavage fluid (BALF); type: in vivo, Balb/c mice; conditions: BAL, ATG-E1 4×10^9 CFU/mouse, Dexa 3 mg/kg, orally daily for 10 days
Description: (§1) There were 8 Balb/c mice (male, 8 weeks old) per group, and all groups except a normal group were injected with a fine dust mixture using the Intra-Nazal-Trachea (INT) injection method described in literatures. The fine dust mixture contained diesel exhaust particles (DEP) (PM10 (Sigma)) and 1% (final concentration) of alum. The fine dust mixture was directly injected into the airways and noses of the experimental animals on days 4, 7, and 10 of the experiment. (Lim et al., Free Radic Biol Med. 25 (6), 635-644 (1998), Shin et al., Korean J. Mediclinal Crop Sci 27 (3), 218-231 (2019)). […] An autopsy was performed on the 11th day after the start of the experiment, and bronchoalveloar lavage fluid (BALF) and lung tissue were collected.
Immune cell profiles (lymphocytes, neutrophils, macrophages, T cell subtypes, Gr-1^+CD11b^+, etc.) were measured by fluorescence-activated cell sorting (FACS) analysis of bronchoalveolar lavage fluid isolated from each individual after the end of the experiment in Example 3-1.

[2] = test system: PM10D-induced airway inflammation model; assay: FACS analysis of immune cells in cells isolated from lung tissue; type: in vivo, Balb/c mice; conditions: ATG-E1 4×10^9 CFU/mouse, Dexa 3 mg/kg, orally daily for 10 days
Description: as §1
Immune cell profiles (lymphocytes, neutrophils, macrophages, T cell subtypes, Gr-1^+CD11b^+, etc.) were measured by fluorescence-activated cell sorting (FACS) analysis of […] lung tissue of each individual after the end of the experiment in Example 3-1.

## C[C@@H]1C[C@H]2[C@@H]3CCC4=CC(=O)C=C[C@]4(C)[C@@]3(F)[C@@H](O)C[C@]2(C)[C@@]1(O)C(=O)CO [Dexa, dexamethasone]
[1]; NC 0.07, CTL 5.26
  CD4^+ (Absolute No.): 3.43 ± 0.58 ×10^7 cells
[1]; NC 0.08, CTL 0.82
  Lymphocytes (Absolute No.): 0.96 ± 0.53 ×10^7 cells
[1]; NC 0.08, CTL 1.73
  CD4^+CD69^+ (Absolute No.): 1.40 ± 0.19 ×10^7 cells
[1]; NC 0.14, CTL 3.72
  CD8^+ (Absolute No.): 2.80 ± 0.71 ×10^7 cells
[1]; NC 0.34, CTL 1.62
  Gr-1^+CD11b^+ (Absolute No.): 1.38 ± 0.12 ×10^7 cells
[1]; NC 0.99, CTL 6.40
  CD62L^−CD44^+high (Absolute No.): 5.95 ± 0.85 ×10^7 cells
[1]; NC 1.18, CTL 1.82
  Macrophage (Absolute No.): 2.29 ± 0.28 ×10^7 cells
[1]; NC 3.59, CTL 15.09
  Neutrophils (Absolute No.): 15.01 ± 2.14 ×10^7 cells
[2]; NC 0.17, CTL 1.07
  Gr-1^+CD11b^+ (Absolute No.): 0.60 ± 0.08 ×10^7cells
[2]; NC 0.20, CTL 3.01
  CD4^+CD69^+ (Absolute No.): 0.29 ± 0.07 ×10^7 cells
[2]; NC 0.27, CTL 3.40
  CD21/35 + B220^+ (Absolute No.): 1.35 ± 0.32 ×10^7 cells
[2]; NC 0.35, CTL 2.53
  CD62L^−CD44^+high (Absolute No.): 1.27 ± 0.15 ×10^7 cells
[2]; NC 1.11, CTL 3.46
  CD8^+ (Absolute No.): 1.92 ± 0.18 ×10^7 cells
[2]; NC 1.56, CTL 6.87
  Eosinophils (Absolute No.): 3.41 ± 1.06 ×10^7 cells
[2]; NC 1.97, CTL 6.13
  CD4^+ (Absolute No.): 3.32 ± 0.42 ×10^7cells
[2]; NC 2.60, CTL 3.17
  Lymphocytes (Absolute No.): 9.34 ± 6.56 ×10^7 cells
[2]; NC 3.03, CTL 12.04
  Neutrophils (Absolute No.): 3.41 ± 0.83 ×10^7 cells
